Data from patent publication US4362725A, “Cephalosporins” (Dr. Karl Thomae Gesellschaft mit beschrankter Haftung, priority 1980, dated 1982).
In brackets after ≈: the same amount, converted by molar mass.

How the values were obtained:
[1] = test system: Staphylococcus aureus SG 511; test: In vitro serial dilution test in the microtiter system (MIC), S. aureus; format: cell-based; conditions: SG511, 18 to 20 h at 37° C.
Experimental: (§1) The tests were performed using the serial dilution test in the microtiter system. The effect of the test compound on bacteristasis was examined in a liquid medium at the following concentrations: >64, 64 32, 16, 8, 4, 2, 1, 0.5, 0.25, 0.125, 0.06, 0.03 and 0.015 μgm/ml. The nutrient medium consisted of 10 gm of peptone, 8 gm of meat extract oxoid, 3 gm of sodium chloride, and 2 gm of sec. sodium phosphate diluted with distilled water to […] (pH 7.2-7.4). Only in the test against streptococci 1% of glucose was added. The age of the primary cultures was approximately 20 hours. The standardization of the bacteria suspension was effected using a photometer according to the method of Eppendorf (test tube .phi.-mm, filter 546 nm), using for comparison a barium sulfate suspension formed by the addition of 3.0 ml of 1% barium chloride solution to 97 ml of 1% sulfuric acid. After standardization, the test microorganisms were further diluted to a concentration of 1:1500, using a sodium chloride solution.
(§2) 16 mgm of the particular test compound were put into a 10 ml measuring flask, and the flask was subsequently filled to the mark with solvent. The further dilution series was standardized with distilled water or the appropriate solvent.
(§3) The cavities of the microtiter plates were filled with 0.2 ml of nutrient medium. 0.01 ml of the appropriate test compound solution was then added, followed by inoculation with 0.01 ml (1 drop) of the standardized bacteria suspension. The bacteria were incubated at 37° C. for 18 to 20 hours. Control tests using only the solvent were carried out simultaneously.
(§4) The readings were made macroscopically to determine the minimum inhibitory concentration (the lowest still bacteriostatically effective concentration).
(§5) The following test organisms were used:
(§6) Staphylococcus aureus SG 511, Escherichia coli ATCC11 775, Pseudomonas aeruginosa hamburgensis and Pseudomonas aeruginosa BC 19, Serratia marcescens ATCC 13 880, Klebsiella pneumoniae ATCC 10 031 and BC 6, Proteus mirabilis BC 17, Proteus rettgeri BC 7, Enterobacter Cloaceae ATCC 13047 and E. coli R+TEM (β-lactamase carrier).

[2] = test system: Escherichia coli ATCC11 775; test: In vitro serial dilution test in the microtiter system (MIC), E. coli; format: cell-based; conditions: 18 to 20 h at 37° C., read-out: MIC E. coli ATCC 11775
Experimental: as §1, §2, §3, §4, §5, §6

[3] = test system: Pseudomonas aeruginosa hamburgensis; test: In vitro serial dilution test in the microtiter system (MIC), Pseudomonas Hbg.; format: cell-based; conditions: 18 to 20 h at 37° C., read-out: MIC Pseud. aerug. Hbg.
Experimental: as §1, §2, §3, §4, §5, §6

[4] = test system: Pseudomonas aeruginosa BC 19; test: In vitro serial dilution test in the microtiter system (MIC), Pseudomonas BC 19; format: cell-based; conditions: BC19, 18 to 20 h at 37° C., read-out: MIC Pseud. aerug. BC 19
Experimental: as §1, §2, §3, §4, §5, §6

[5] = test system: Klebsiella pneumoniae ATCC 10 031; test: In vitro serial dilution test in the microtiter system (MIC), Klebsiella ATCC 10031; format: cell-based; conditions: 18 to 20 h at 37° C., read-out: MIC Klebs. pneum. ATCC 10031
Experimental: as §1, §2, §3, §4, §5, §6

[6] = test system: Klebsiella pneumoniae BC 6; test: In vitro serial dilution test in the microtiter system (MIC), Klebsiella BC 6; format: cell-based; conditions: BC6, 18 to 20 h at 37° C., read-out: MIC Klebs. pneum. BC 6
Experimental: as §1, §2, §3, §4, §5, §6

Proteus mirabilis BC 17 = test: In vitro serial dilution test in the microtiter system (MIC), Proteus mirabilis; format: cell-based; conditions: BC17, 18 to 20 h at 37° C., read-out: MIC Prot. mir. BC 17
Experimental: as §1, §2, §3, §4, §5, §6

Proteus rettgeri BC 7 = test: In vitro serial dilution test in the microtiter system (MIC), Proteus rettgeri; format: cell-based; conditions: Providencia rettgeri, BC7; 18 to 20 h at 37° C.; read-out: MIC Prot. rettg. BC 7
Experimental: as §1, §2, §3, §4, §5, §6

[7] = test system: E. coli R+TEM (β-lactamase carrier); test: In vitro serial dilution test in the microtiter system (MIC), E. coli R+TEM; format: cell-based; conditions: Escherichia coli, read-out: MIC E. coli R + TEM
Experimental: as §1, §2, §3, §4, §5, §6

[8] = test system: Serratia marcescens ATCC 13 880; test: In vitro serial dilution test in the microtiter system (MIC), Serratia; format: cell-based; conditions: 18 to 20 h at 37° C., read-out: MIC Ser. marcesc. ATCC 13880
Experimental: as §1, §2, §3, §4, §5, §6

[9] = test system: Enterobacter Cloaceae ATCC 13047; test: In vitro serial dilution test in the microtiter system (MIC), Enterobacter; format: cell-based; conditions: ATCC13047, 18 to 20 h at 37° C., read-out: MIC Eb. cloaceae
Experimental: as §1, §2, §3, §4, §5, §6

E. coli ATCC 11 775 = test: In vivo activity in mice, experimental E. coli infection; design: species or system mice (female, NMRI strain); conditions: Escherichia coli, ATCC11, sc, 168 h; s.c., once 1 hour after i.p. E. coli infection; 7 days observation; read-out: ED50 (dose at which 50% of the animals survive)
Experimental: (§7) Several of the compounds of this invention were tested in vivo against experimental infections in mice. E. coli ATCC 11 775 and Pseudomonas aeruginosa BC 19 were used as the pathogenic bacteria. An interaperitoneal infection was induced with 0.2 ml of a bacterial suspension (containing 5% of mucin). This corresponds to approximately 1.4×10^6 E. coli germs or to 1.3×10^6 pseudomonas germs per mouse. Female mice of the NMRI strain were divided up into groups of 10 animals of which 2 groups remained untreated while the remaining groups were subcutaneously administered various doses of the particular cephalosporins according to the invention for the purpose of determining the ED50 (dose at which 50% of the animals survive). In the case of the E. coli infection, the treatment was applied once (1 hour after infection) while the pseudomonas infection was treated 3 times (1, 3 and 5 hours after infection).
(§8) In both cases, the observation period was 7 days. The results of these tests, carried out with typical representatives of the cephalosporins according to the invention, are shown in Table 3 below.

[10] = test system: Pseudomonas aeruginosa BC 19; test: In vivo activity in mice, experimental Pseudomonas infection; design: species or system mice (female, NMRI strain); conditions: BC19, sc, 168 h, per dose, s.c., 3 times (1, 3 and 5 hours after i.p. Pseudomonas infection), 7 days observation, read-out: ED50 (dose at which 50% of the animals survive)
Experimental: as §7, §8

Row | SMILES | MIC [1] | MIC [2] | MIC [3] | MIC [4] | MIC [5] | MIC [6] | MIC (Proteus mirabilis BC 17) | MIC (Proteus rettgeri BC 7) | MIC [7] | MIC [8] | MIC [9] | ED50 (E. coli ATCC 11 775) | ED50 [10]
1 | C[S+]([O-])CCn1nnnc1SCC1=C(C(=O)O)N2C(=O)[C@@H](NC(=O)C(NC(=O)Nc3cnc(Nc4ccc(S(N)(=O)=O)cc4)nc3O)c3ccc(O)cc3)[C@H]2SC1 (stereo partly drawn) [Compound 21] | 1 µg/mL (≈ 1.16 µM) | 0.12 µg/mL (≈ 0.139 µM) | 8 µg/mL (≈ 9.29 µM) | 8 µg/mL (≈ 9.29 µM) | 0.25 µg/mL (≈ 0.29 µM) | 0.25 µg/mL (≈ 0.29 µM) | 0.12 µg/mL (≈ 0.139 µM) | 0.5 µg/mL (≈ 0.581 µM) | 8 µg/mL | 0.25 µg/mL (≈ 0.29 µM) | – | – | –
2 | CS(=O)(=O)NCCn1nnnc1SCC1=C(C(=O)O)N2C(=O)[C@@H](NC(=O)C(NC(=O)Nc3cnc(Nc4ccc(S(N)(=O)=O)cc4)nc3O)c3ccc(O)cc3)[C@H]2SC1 (stereo partly drawn) [Compound 36] | 2 µg/mL (≈ 2.24 µM) | 0.03 µg/mL (≈ 0.0336 µM) | 4 µg/mL (≈ 4.48 µM) | 2 µg/mL (≈ 2.24 µM) | 0.12 µg/mL (≈ 0.135 µM) | 0.12 µg/mL (≈ 0.135 µM) | 0.06 µg/mL (≈ 0.0673 µM) | 0.25 µg/mL (≈ 0.28 µM) | 8 µg/mL | 0.25 µg/mL (≈ 0.28 µM) | 0.12 µg/mL (≈ 0.135 µM) | – | –
3 | Cn1c(SCC2=C(C(=O)O)N3C(=O)[C@@H](NC(=O)C(NC(=O)Nc4cnc(Nc5ccc(S(N)(=O)=O)cc5)nc4O)c4ccc(O)cc4)[C@H]3SC2)nnc(O)c1=O (stereo partly drawn) [Compound 16] | 0.12 µg/mL (≈ 0.145 µM) | 0.12 µg/mL (≈ 0.145 µM) | 8 µg/mL (≈ 9.66 µM) | 4 µg/mL (≈ 4.83 µM) | 0.12 µg/mL (≈ 0.145 µM) | 0.25 µg/mL (≈ 0.302 µM) | 0.12 µg/mL (≈ 0.145 µM) | 0.25 µg/mL (≈ 0.302 µM) | 4 µg/mL | 0.25 µg/mL (≈ 0.302 µM) | 0.25 µg/mL (≈ 0.302 µM) | ~0.8 mg/kg | 10 to 20 mg/kg
4 | CO/N=C(\C(=O)N[C@@H]1C(=O)N2C(C(=O)O)=C(COC(N)=O)CS[C@H]12)c1ccco1 [Cefuroxim, reference compound] | 1 µg/mL (≈ 2.36 µM) | 8 µg/mL (≈ 18.9 µM) | > 100 µg/mL | > 100 µg/mL | 2 µg/mL (≈ 4.71 µM) | 4 µg/mL (≈ 9.43 µM) | 0.5 µg/mL (≈ 1.18 µM) | 2 µg/mL (≈ 4.71 µM) | 4 µg/mL | 8 µg/mL (≈ 18.9 µM) | 32 µg/mL (≈ 75.4 µM) | > 100 mg/kg | –
5 | Cc1nnc(SCC2=C(C(=O)O)N3C(=O)[C@@H](NC(=O)Cn4cnnn4)[C@H]3SC2)s1 [Cephazolin, reference compound] | 0.06 µg/mL (≈ 0.132 µM) | 4 µg/mL (≈ 8.8 µM) | > 100 µg/mL | > 100 µg/mL | 1 µg/mL (≈ 2.2 µM) | 2 µg/mL (≈ 4.4 µM) | 4 µg/mL (≈ 8.8 µM) | > 100 µg/mL | 4 µg/mL | > 100 µg/mL | > 100 µg/mL | – | –
6 | CC(=O)NCCn1nnnc1SCC1=C(C(=O)O)N2C(=O)[C@@H](NC(=O)C(NC(=O)Nc3cnc(Nc4ccc(S(N)(=O)=O)cc4)nc3O)c3ccc(O)cc3)[C@H]2SC1 (stereo partly drawn) [Compound 37] | 2 µg/mL (≈ 2.34 µM) | 0.12 µg/mL (≈ 0.14 µM) | 8 µg/mL (≈ 9.35 µM) | 4 µg/mL (≈ 4.67 µM) | 0.12 µg/mL (≈ 0.14 µM) | 0.12 µg/mL (≈ 0.14 µM) | 0.06 µg/mL (≈ 0.0701 µM) | 0.25 µg/mL (≈ 0.292 µM) | 8 µg/mL | 0.12 µg/mL (≈ 0.14 µM) | 0.12 µg/mL (≈ 0.14 µM) | – | –
7 | NS(=O)(=O)c1ccc(Nc2ncc(NC(=O)NC(C(=O)N[C@@H]3C(=O)N4C(C(=O)O)=C(CSc5nnnn5CCO)CS[C@H]34)c3ccc(O)cc3)c(O)n2)cc1 (stereo partly drawn) [Compound 7] | 1 µg/mL (≈ 1.23 µM) | 0.03 µg/mL (≈ 0.0368 µM) | 4 µg/mL (≈ 4.91 µM) | 4 µg/mL (≈ 4.91 µM) | 0.12 µg/mL (≈ 0.147 µM) | 0.12 µg/mL (≈ 0.147 µM) | 0.06 µg/mL (≈ 0.0736 µM) | 0.25 µg/mL (≈ 0.307 µM) | 4 µg/mL | 0.12 µg/mL (≈ 0.147 µM) | 0.25 µg/mL (≈ 0.307 µM) | ~0.3 mg/kg | 6.3 mg/kg
8 | NS(=O)(=O)c1ccc(Nc2ncc(NC(=O)NC(C(=O)N[C@@H]3C(=O)N4C(C(=O)O)=C(CSc5nnnn5CC(=O)O)CS[C@H]34)c3ccc(O)cc3)c(O)n2)cc1 (stereo partly drawn) [Compound 5] | 4 µg/mL (≈ 4.83 µM) | 0.5 µg/mL (≈ 0.603 µM) | 8 µg/mL (≈ 9.65 µM) | 8 µg/mL (≈ 9.65 µM) | 0.5 µg/mL (≈ 0.603 µM) | 0.5 µg/mL (≈ 0.603 µM) | 0.12 µg/mL (≈ 0.145 µM) | 0.25 µg/mL (≈ 0.302 µM) | 32 µg/mL | 0.5 µg/mL (≈ 0.603 µM) | 2 µg/mL (≈ 2.41 µM) | – | –
9 | CS(=O)(=O)CCn1nnnc1SCC1=C(C(=O)O)N2C(=O)[C@@H](NC(=O)C(NC(=O)Nc3cnc(Nc4ccc(S(N)(=O)=O)cc4)nc3O)c3ccc(O)cc3)[C@H]2SC1 (stereo partly drawn) [Compound 30] | 2 µg/mL (≈ 2.28 µM) | 0.12 µg/mL (≈ 0.137 µM) | 8 µg/mL (≈ 9.12 µM) | 4 µg/mL (≈ 4.56 µM) | 0.5 µg/mL (≈ 0.57 µM) | 0.5 µg/mL (≈ 0.57 µM) | 0.06 µg/mL (≈ 0.0684 µM) | 1 µg/mL (≈ 1.14 µM) | 8 µg/mL | 0.5 µg/mL (≈ 0.57 µM) | 0.5 µg/mL (≈ 0.57 µM) | ~0.6 mg/kg | 10 to 20 mg/kg
